Measured values taken from ChEMBL document CHEMBL6096732 (J Med Chem, 2025).
The source made the active and inactive calls. The rule behind the calls is not given here.

Assays:
[1] = biological target: T1, Histone deacetylase 3 (Mus musculus) (UniProt O88895); assay: In vivo inhibition of HDAC3 in male C57BL/6 mouse model implanted with mouse B16-F10 cells assessed as increase in acetylated histone H3 level in tumor at 50 mg/kg, po co-administered with NP-19 as once daily dosage via gavage for 14 days by DAPI staining based immunofluorescence analysis; assay type: functional, organism-based; settings: time 14.0 day
T1 sequence (whole entry): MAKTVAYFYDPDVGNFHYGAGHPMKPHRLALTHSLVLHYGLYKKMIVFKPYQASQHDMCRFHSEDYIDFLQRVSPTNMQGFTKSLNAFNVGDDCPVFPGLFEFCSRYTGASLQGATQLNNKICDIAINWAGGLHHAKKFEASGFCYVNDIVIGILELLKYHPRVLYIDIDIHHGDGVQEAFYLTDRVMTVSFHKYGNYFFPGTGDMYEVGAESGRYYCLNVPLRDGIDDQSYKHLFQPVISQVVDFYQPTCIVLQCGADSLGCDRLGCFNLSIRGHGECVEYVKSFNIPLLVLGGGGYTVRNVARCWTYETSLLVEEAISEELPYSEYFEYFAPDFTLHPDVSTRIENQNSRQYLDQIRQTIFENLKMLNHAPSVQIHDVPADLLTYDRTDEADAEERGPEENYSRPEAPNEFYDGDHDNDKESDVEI

[2] = biological target: Polyamine deacetylase HDAC10 (Homo sapiens, UniProt Q969S8); assay: Inhibition of recombinant HDAC10 (unknown origin) preincubated for 1 hr followed by substrate addition and measured after 2 hrs by fluorescence based micro plate reader analysis
Polyamine deacetylase HDAC10, sequence (Q969S8 whole entry): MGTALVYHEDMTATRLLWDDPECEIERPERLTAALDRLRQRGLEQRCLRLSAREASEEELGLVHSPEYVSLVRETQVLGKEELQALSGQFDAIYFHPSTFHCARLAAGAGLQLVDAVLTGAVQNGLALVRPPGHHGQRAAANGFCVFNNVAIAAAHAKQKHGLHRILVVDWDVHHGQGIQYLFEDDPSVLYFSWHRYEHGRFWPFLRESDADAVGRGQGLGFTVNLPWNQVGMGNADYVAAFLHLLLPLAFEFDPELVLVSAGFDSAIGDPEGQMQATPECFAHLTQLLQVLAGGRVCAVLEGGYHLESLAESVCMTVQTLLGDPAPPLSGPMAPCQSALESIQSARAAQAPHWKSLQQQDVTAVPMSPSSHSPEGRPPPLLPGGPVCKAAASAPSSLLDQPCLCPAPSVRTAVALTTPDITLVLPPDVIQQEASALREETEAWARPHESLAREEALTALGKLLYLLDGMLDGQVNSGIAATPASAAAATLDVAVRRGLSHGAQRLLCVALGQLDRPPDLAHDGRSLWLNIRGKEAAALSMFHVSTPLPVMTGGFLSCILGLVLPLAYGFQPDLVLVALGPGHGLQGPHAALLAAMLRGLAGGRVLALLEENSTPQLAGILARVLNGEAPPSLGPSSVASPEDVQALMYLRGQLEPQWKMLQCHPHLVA

4T1 [3] = assay: Induction of DNA damage in mouse 4T1 cells assessed as increase in gamma-H2AX expression at 2 uM incubated for 24 hrs in presence of olaparib by Western blot analysis; assay type: functional, cell-based
[4] = biological target: T2, Protein deacetylase HDAC6 (Homo sapiens) (UniProt Q9UBN7); settings: dose 500.0 nM, time 3.0 hrs
T2 sequence (whole entry): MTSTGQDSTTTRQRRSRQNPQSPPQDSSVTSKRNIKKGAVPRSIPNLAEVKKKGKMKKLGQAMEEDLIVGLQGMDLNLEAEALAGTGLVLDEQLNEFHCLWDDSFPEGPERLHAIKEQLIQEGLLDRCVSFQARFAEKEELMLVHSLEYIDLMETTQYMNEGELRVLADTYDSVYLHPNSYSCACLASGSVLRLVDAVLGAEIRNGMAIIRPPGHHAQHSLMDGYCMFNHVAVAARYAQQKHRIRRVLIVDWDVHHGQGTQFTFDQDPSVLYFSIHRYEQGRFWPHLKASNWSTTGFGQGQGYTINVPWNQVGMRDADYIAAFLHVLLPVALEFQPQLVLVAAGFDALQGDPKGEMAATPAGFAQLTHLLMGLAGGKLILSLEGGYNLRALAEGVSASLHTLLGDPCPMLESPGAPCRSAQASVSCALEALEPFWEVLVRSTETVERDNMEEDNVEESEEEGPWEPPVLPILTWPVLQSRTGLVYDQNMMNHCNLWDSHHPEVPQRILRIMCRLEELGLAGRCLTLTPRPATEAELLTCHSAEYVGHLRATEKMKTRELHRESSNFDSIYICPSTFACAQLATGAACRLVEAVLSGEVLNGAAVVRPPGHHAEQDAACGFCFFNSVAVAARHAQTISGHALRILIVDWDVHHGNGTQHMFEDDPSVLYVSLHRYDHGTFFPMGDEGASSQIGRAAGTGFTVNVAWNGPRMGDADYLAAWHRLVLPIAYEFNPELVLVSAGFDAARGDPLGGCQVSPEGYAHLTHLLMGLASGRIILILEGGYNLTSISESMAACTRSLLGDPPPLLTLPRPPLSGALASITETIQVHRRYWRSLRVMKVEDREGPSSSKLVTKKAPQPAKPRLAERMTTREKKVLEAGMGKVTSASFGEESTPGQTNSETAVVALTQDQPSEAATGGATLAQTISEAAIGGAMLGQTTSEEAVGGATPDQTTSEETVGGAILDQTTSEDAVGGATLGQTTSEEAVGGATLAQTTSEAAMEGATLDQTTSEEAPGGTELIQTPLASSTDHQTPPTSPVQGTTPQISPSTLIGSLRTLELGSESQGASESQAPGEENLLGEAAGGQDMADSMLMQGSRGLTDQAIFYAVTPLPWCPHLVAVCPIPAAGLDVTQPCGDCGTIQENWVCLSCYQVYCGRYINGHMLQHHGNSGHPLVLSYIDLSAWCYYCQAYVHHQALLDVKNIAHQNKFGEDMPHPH

B16-F10 = assay: Induction of DNA damage in mouse B16-F10 cells assessed as increase in gamma-H2AX expression at 2 uM incubated for 24 hrs by Western blot analysis; assay type: functional, cell-based
[5] = Toxicity in male C57BL/6 mouse implanted with mouse B16-F10 cells assessed as histopathological changes in kidney at 50 mg/kg, po co-administered with NP-19 as once daily dosage via gavage for 14 days by HandE staining based microscopic analysis; assay type: organism-based; settings: in vivo, 336 h, time 14 day
[6] = biological target: T1, Histone deacetylase 3 (Mus musculus); assay: In vivo inhibition of HDAC3 in male C57BL/6 mouse model implanted with mouse B16-F10 cells assessed as increase in acetylated histone H3 level at 50 mg/kg, po administered once daily via gavage for 14 days by Western blot analysis; assay type: functional, organism-based; settings: time 14.0 day
4T1 [7] = assay: Antitumor activity against mouse 4T1 cells implanted in female BALB/c mouse model assessed as induction of DNA damage by measuring increase in gamma-H2AX fluorescence intensity in tumor co-administrated orally with olaparib as once daily dose via gavage for 14 days by DAPI staining based immunofluorescence analysis; assay type: functional, cell-based; settings: route po, time 14.0 day
4T1 [8] = assay: Induction of DNA damage in mouse 4T1 cells assessed as upregulation of nuclear gamma-H2AX expression at 5 uM by DAPI staining based immunofluorescence analysis; assay type: functional, cell-based
[9] = VRT (0 to infinity) in male Sprague-Dawley rat at 20 mg/kg, po measured after 12 hrs by LC-MS/MS analysis; assay type: ADME, organism-based; settings: in vivo
Mus musculus = assay: Immunomodulatory activity in male C57BL/6 mouse model implanted with mouse B16-F10 cells assessed as increase in CD3+ CD8+ T cells in tumor at 50 mg/kg, po co-administered with NP-19 as once daily dosage via gavage for 14 days by flow cytometric analysis (reference value: 3.2 %); assay type: functional; settings: time 14 day
[10] = Tmax in male Sprague-Dawley rat at 20 mg/kg, po measured after 12 hrs by LC-MS/MS analysis; assay type: ADME, organism-based; settings: in vivo
4T1 [11] = assay: Induction of DNA damage in mouse 4T1 cells assessed as increase in gamma-H2AX expression at 2 uM incubated for 24 hrs by Western blot analysis; assay type: functional, cell-based
[12] = Clast in male Sprague-Dawley rat at 2 mg/kg, iv measured after 12 hrs by LC-MS/MS analysis; assay type: ADME, organism-based; settings: in vivo, read-out: Clast
[13] = Clast in male Sprague-Dawley rat at 20 mg/kg, po measured after 12 hrs by LC-MS/MS analysis; assay type: ADME, organism-based; settings: in vivo, read-out: Clast
[14] = VRT (0 to t) in male Sprague-Dawley rat at 2 mg/kg, iv measured after 12 hrs by LC-MS/MS analysis; assay type: ADME, organism-based; settings: in vivo
SK-OV-3 = assay: cells; assay type: functional, cell-based; settings: Homo sapiens, SK-OV-3, 72 h
Description: Antiproliferative activity against human SK-OV-3 cells assessed as inhibition of cell growth incubated for 72 hrs by MTT assay

Compound: CCCNNC(=O)c1ccc(Cn2c3ccccc3c3c(-c4ccccn4)nc4ccccc4c32)cc1
- inhibition [1]: Active
- IC50 [2]: > 10 µM
- Activity (4T1 [3]): Active
- inhibition [4]: 17%
- Activity (B16-F10): Active
- Activity [5]: Non-toxic
- inhibition [6]: Active
- Activity (4T1 [7]): Active
- Activity (4T1 [8]): Active
- VRT [9]: 12.987 hr2
- Activity (Mus musculus): 32%
- Tmax [10]: 30 min
- Activity (4T1 [11]): Active
- concentration at 12 h [12]: 0.475 ng/mL
- concentration at 12 h [13]: 106 ng/mL
- VRT(t) [14]: 0.641 hr2
- IC50 (SK-OV-3): 12.8 µM
